In patent publication US20260159512A1, “BCAT2 INHIBITORS” (AGIOS PHARMACEUTICALS, INC., priority 2021, published 2026):
Values joined by “and” are separate entries in the source; they are usually repeats but may differ in a detail not shown here. Equal entries are not always repeated.

What was measured:
Conditions in all cases: average where tested multiple times
hBCAT1 = target: T1, hBCAT1 (Homo sapiens, UniProt P54687); assay: BCAT1 in vitro enzyme inhibition assay (resazurin/diaphorase-coupled fluorescence); assay type: biochemical
T1 sequence (P54687 1-386): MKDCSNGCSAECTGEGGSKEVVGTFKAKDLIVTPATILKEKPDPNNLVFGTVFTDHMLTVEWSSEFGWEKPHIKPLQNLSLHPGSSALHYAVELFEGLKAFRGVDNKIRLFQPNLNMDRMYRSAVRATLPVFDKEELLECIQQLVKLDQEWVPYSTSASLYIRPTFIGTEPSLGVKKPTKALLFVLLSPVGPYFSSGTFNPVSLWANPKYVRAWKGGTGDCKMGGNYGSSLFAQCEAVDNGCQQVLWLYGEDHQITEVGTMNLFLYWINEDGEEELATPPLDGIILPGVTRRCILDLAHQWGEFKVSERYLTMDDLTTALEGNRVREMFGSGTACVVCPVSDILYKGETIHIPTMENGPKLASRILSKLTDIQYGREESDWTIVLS
In short: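 Ten-point, 3-fold compound series (top final 100 μM, delivered 1:50 from 50× DMSO stocks) tested against hBCAT1. Inhibition detected via diaphorase-coupled resazurin fluorescence, duplicate wells, with values from repeated runs averaged.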

BCAT2 [1] = target: T2, BCAT2 (Homo sapiens, UniProt O15382); assay: BCAT2 in vitro enzyme inhibition assay (resazurin/diaphorase-coupled fluorescence); assay type: biochemical
T2 sequence (O15382 28-392): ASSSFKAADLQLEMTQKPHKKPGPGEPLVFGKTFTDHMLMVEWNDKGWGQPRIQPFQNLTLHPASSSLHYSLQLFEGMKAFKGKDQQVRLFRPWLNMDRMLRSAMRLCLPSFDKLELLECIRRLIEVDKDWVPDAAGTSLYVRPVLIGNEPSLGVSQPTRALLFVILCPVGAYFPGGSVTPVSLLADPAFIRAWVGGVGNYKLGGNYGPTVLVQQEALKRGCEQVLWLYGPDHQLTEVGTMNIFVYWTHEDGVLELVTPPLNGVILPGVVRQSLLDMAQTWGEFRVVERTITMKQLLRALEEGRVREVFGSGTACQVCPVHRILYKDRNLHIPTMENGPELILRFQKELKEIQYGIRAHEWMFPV
In short: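 Coupled fluorescence readout: glutamate formed from L-leucine/α-ketoglutarate transamination drives GDH/NAD/diaphorase reduction of resazurin (Ex 540/Em 590). Human BCAT2 was first exposed 1 h at room temperature to compound, top final 100 μM in 3-fold, 10-point series; substrate reaction ran 1 h before SDS quench, in technical duplicate with DMSO max and enzyme-free min controls.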

BCAT2 [2] = target: T2, BCAT2; assay: BCAT2 in vitro cell inhibition using engineered A549 cells (KMV cell assay, 13C6-KMV by LC-MS/MS); assay type: cell-based; design: The result was an engineered A549 cell line that expressed endogenous BCAT2; endogenous in cells; host or cells: A549 cells with MUT and BCAT1 knocked out by CRISPR/CAS9; key to BCAT2 Cell Inhibition: A: less than or equal to 0.100 μM; B: greater than 0.100 and less than or equal to 0.500 μM; C: greater than 0.500 and less than or equal to 1.000 μM; d: greater than 1.000 μM; E: no fit

IC50 (hBCAT1)	IC50 (BCAT2 [1]) [µM]	IC50 (BCAT2 [2]) [µM]	BCAT2 Cell Inhibition (BCAT2 [2])	Compound
1 to 5 µM and > 5 µM	≤ 0.1	> 1	–	CC(=O)N1CC(NC(=O)c2ncc(C(F)F)s2)CC(n2c(-c3ncccc3F)nc3cnc(-n4ccnn4)cc32)C1 (stereo not drawn) [Example 120, N-(1-acetyl-5-(2-(3-fluoropyridin-2-yl)-6-(1H-1,2,3-triazol-1-yl)-1H-imidazo[4,5-c]pyridin-1-yl)piperidin-3-yl)-5-(difluoromethyl)thiazole-2-carboxamide]
0.5 to 1 µM	≤ 0.1	0.1 to 0.5	–	CC(=O)N1CC(NC(=O)c2ncc(C(F)F)s2)CC(n2c(-c3ccccn3)nc3cnc(-n4nccn4)cc32)C1 (stereo not drawn) [Example 121, N-(1-acetyl-5-(2-(pyridin-2-yl)-6-(2H-1,2,3-triazol-2-yl)-1H-imidazo[4,5-c]pyridin-1-yl)piperidin-3-yl)-5-(difluoromethyl)thiazole-2-carboxamide]
> 5 µM	0.1 to 0.5	–	E	CC(=O)N1CC(NC(=O)c2ncc(C(F)F)s2)CC(n2c(-c3ccccn3)nc3cnc(-n4ccnn4)cc32)C1 (stereo not drawn) [Example 122, N-(1-acetyl-5-(2-(pyridin-2-yl)-6-(1H-1,2,3-triazol-1-yl)-1H-imidazo[4,5-c]pyridin-1-yl)piperidin-3-yl)-5-(difluoromethyl)thiazole-2-carboxamide]
< 0.5 µM	≤ 0.1	≤ 0.1	–	CC(=O)N1CC(NC(=O)c2ncc(C(F)F)s2)CC(n2c(-c3ccccc3F)nc3cnc(-n4nccn4)cc32)C1 (stereo not drawn) [Example 123, N-(1-acetyl-5-(2-(2-fluorophenyl)-6-(2H-1,2,3-triazol-2-yl)-1H-imidazo[4,5-c]pyridin-1-yl)piperidin-3-yl)-5-(difluoromethyl)thiazole-2-carboxamide]
1 to 5 µM	≤ 0.1	0.1 to 0.5	–	CC(=O)N1CC(NC(=O)c2ncc(C(F)F)s2)CC(n2c(-c3ccccc3F)nc3cnc(-n4ccnn4)cc32)C1 (stereo not drawn) [Example 124, N-(1-acetyl-5-(2-(2-fluorophenyl)-6-(1H-1,2,3-triazol-1-yl)-1H-imidazo[4,5-c]pyridin-1-yl)piperidin-3-yl)-5-(difluoromethyl)thiazole-2-carboxamide]
1 to 5 µM	≤ 0.1	0.1 to 0.5	–	O=C(NC1CNCC(n2c(-c3ncccc3F)nc3cnc(-n4nccn4)cc32)C1)c1ncc(C(F)F)s1 (stereo not drawn) [Example 125, 5-(difluoromethyl)-N-(5-(2-(3-fluoropyridin-2-yl)-6-(2H-1,2,3-triazol-2-yl)-1H-imidazo[4,5-c]pyridin-1-yl)piperidin-3-yl)thiazole-2-carboxamide]
< 0.5 µM	≤ 0.1	≤ 0.1	–	CC(=O)N1C[C@H](NC(=O)c2ncc(C(F)F)s2)C[C@H](n2c(-c3ccccc3F)nc3cnc(-c4ncco4)cc32)C1 [Example 128, N-((3R,5S)-1-acetyl-5-(2-(2-fluorophenyl)-6-(oxazol-2-yl)-1H-imidazo[4,5-c]pyridin-1-yl)piperidin-3-yl)-5-(difluoromethyl)thiazole-2-carboxamide]
> 5 µM	≤ 0.1	> 1	–	CC(O)CN1CC(NC(=O)c2ncc(C(F)F)s2)CC(n2c(-c3ncccc3F)nc3cnc(-n4nccn4)cc32)C1 (stereo not drawn) [Example 129, 5-(difluoromethyl)-N-(5-(2-(3-fluoropyridin-2-yl)-6-(2H-1,2,3-triazol-2-yl)-1H-imidazo[4,5-c]pyridin-1-yl)-1-(2-hydroxypropyl)piperidin-3-yl)thiazole-2-carboxamide]
> 5 µM	≤ 0.1	> 1	–	O=C(N[C@H]1CCC[C@@H](n2c(-c3ccccc3F)nc3cc(-n4nccn4)ncc32)C1)c1ncc(C(F)F)s1 [Example 148, 5-(difluoromethyl)-N-((1S,3R)-3-(2-(2-fluorophenyl)-6-(2H-1,2,3-triazol-2-yl)-3H-imidazo[4,5-c]pyridin-3-yl)cyclohexyl)thiazole-2-carboxamide]
1 to 5 µM	≤ 0.1	0.1 to 0.5	–	O=C(N[C@H]1CCC[C@@H](n2c(-c3ccccc3F)nc3cc(-n4ccnn4)ncc32)C1)c1ncc(C(F)F)s1 [Example 149, 5-(difluoromethyl)-N-((1S,3R)-3-(2-(2-fluorophenyl)-6-(1H-1,2,3-triazol-1-yl)-3H-imidazo[4,5-c]pyridin-3-yl)cyclohexyl)thiazole-2-carboxamide]

The next lines start with the compound.

Compound	IC50 (hBCAT1)	IC50 (BCAT2 [1]) [µM]	IC50 (BCAT2 [2]) [µM]	BCAT2 Cell Inhibition (BCAT2 [2])
CC(=O)N1CC(NC(=O)c2ncc(C(F)F)s2)CC(n2c(-c3ccccc3F)nc3cnc(-c4ncco4)cc32)C1 (stereo not drawn) [Example 126, N-(1-acetyl-5-(2-(2-fluorophenyl)-6-(oxazol-2-yl)-1H-imidazo[4,5-c]pyridin-1-yl)piperidin-3-yl)-5-(difluoromethyl)thiazole-2-carboxamide]	< 0.5 µM	≤ 0.1	≤ 0.1	–
CC(=O)N1C[C@@H](NC(=O)c2ncc(C(F)F)s2)C[C@@H](n2c(-c3ccccc3F)nc3cnc(-c4ncco4)cc32)C1 [Example 127, N-((3S,5R)-1-acetyl-5-(2-(2-fluorophenyl)-6-(oxazol-2-yl)-1H-imidazo[4,5-c]pyridin-1-yl)piperidin-3-yl)-5-(difluoromethyl)thiazole-2-carboxamide]	1 to 5 µM	0.1 to 0.5	> 1	–
Cc1coc(-c2cc3c(cn2)nc(-c2ccccc2F)n3C2CC(NC(=O)c3ncc(Cl)s3)CN(C)C2)n1 (stereo not drawn) [Example 130, 5-chloro-N-(5-(2-(2-fluorophenyl)-6-(4-methyloxazol-2-yl)-1H-imidazo[4,5-c]pyridin-1-yl)-1-methylpiperidin-3-yl)thiazole-2-carboxamide]	1 to 5 µM	≤ 0.1	0.1 to 0.5	–
CC(=O)N1CC(NC(=O)c2ccc(Cl)s2)CC(n2c(CC(C)C)nc3cnc(-n4nccn4)cc32)C1 (stereo not drawn) [Example 131, N-(1-acetyl-5-(2-isobutyl-6-(2H-1,2,3-triazol-2-yl)-1H-imidazo[4,5-c]pyridin-1-yl)piperidin-3-yl)-5-chlorothiophene-2-carboxamide]	< 0.5 µM	≤ 0.1	0.1 to 0.5	–
CC(=O)N1CC(NC(=O)c2ccc(Cl)s2)CC(n2c(-c3ccccc3F)nc3cnc(-n4nccn4)cc32)C1 (stereo not drawn) [Example 132, N-(1-acetyl-5-(2-(2-fluorophenyl)-6-(2H-1,2,3-triazol-2-yl)-1H-imidazo[4,5-c]pyridin-1-yl)piperidin-3-yl)-5-chlorothiophene-2-carboxamide]	< 0.5 µM	≤ 0.1	≤ 0.1	–
O=C(N[C@H]1CCC[C@@H](n2c(-c3ccccn3)nc3cc(-n4ccnn4)ncc32)C1)c1ccc(Br)s1 [Example 152, 5-bromo-N-((1S,3R)-3-(2-(pyridin-2-yl)-6-(1H-1,2,3-triazol-1-yl)-3H-imidazo[4,5-c]pyridin-3-yl)cyclohexyl)thiophene-2-carboxamide]	0.5 to 1 µM	≤ 0.1	≤ 0.1	–
Cc1nc(-c2cc3c(cn2)nc(CC(C)C)n3[C@@H]2CCC[C@H](NC(=O)c3ncc(Cl)s3)C2)cs1 [Example 158, 5-chloro-N-((1S,3R)-3-(2-isobutyl-6-(2-methylthiazol-4-yl)-1H-imidazo[4,5-c]pyridin-1-yl)cyclohexyl)thiazole-2-carboxamide]	1 to 5 µM	≤ 0.1	> 1	–
CC(C)Cc1nc2cnc(-c3cscn3)cc2n1[C@@H]1CCC[C@H](NC(=O)c2ncc(Cl)s2)C1 [Example 159, 5-chloro-N-((1S,3R)-3-(2-isobutyl-6-(thiazol-4-yl)-1H-imidazo[4,5-c]pyridin-1-yl)cyclohexyl)thiazole-2-carboxamide]	< 0.5 µM	≤ 0.1	0.1 to 0.5	–
CC(C)Cc1nc2cnc(-c3cccc(F)n3)cc2n1[C@@H]1CCC[C@H](NC(=O)c2ncc(Cl)s2)C1 [Example 160, 5-chloro-N-((1S,3R)-3-(6-(6-fluoropyridin-2-yl)-2-isobutyl-1H-imidazo[4,5-c]pyridin-1-yl)cyclohexyl)thiazole-2-carboxamide]	0.5 to 1 µM	≤ 0.1	0.5 to 1	–
